Read-outs that look alike come from different tables or passages of the source.
How the values were obtained:
Assay in all cases: MIC determination
Type in all cases: cell-based
E. coli ATCC 25922 = conditions: Escherichia coli
[1] = tested on: S. pneumoniae MMX 3031 cMefA; conditions: Streptococcus pneumoniae, MMX3031CMEFA
[2] = tested on: E. coli MMX TolC parent strain; conditions: Escherichia coli
S. aureus ATCC 29213 = conditions: Staphylococcus aureus
C. difficile BAA 1805 = conditions: Clostridioides difficile, BAA1805
[3] = tested on: S. aureus Micromyx USA 300; conditions: Staphylococcus aureus, USA300
H. influenzae ATCC 49247 = conditions: Haemophilus influenzae, ATCC49247
[4] = tested on: S. pyogenes MMX 946 Macrolide-Resistant; conditions: Streptococcus pyogenes
S. aureus MMX 3035 cErmA = conditions: Staphylococcus aureus, MMX3035CERMA
B. fragilis ATCC 25285 = conditions: Bacteroides fragilis, ATCC25285
S. pyogenes ATCC 19615 = conditions: Streptococcus pyogenes, ATCC19615; S. pyogenes ATCC 19615; read-out: MIC
P. aeruginosa ATCC 27853 = conditions: Pseudomonas aeruginosa, ATCC27853
E. coli MMX 0121 ΔTolC = conditions: Escherichia coli
[5] = tested on: P. aeruginosa MMX 3476 Δmex; conditions: Pseudomonas aeruginosa
[6] = tested on: P. aeruginosa MMX Mex parent strain; conditions: Pseudomonas aeruginosa
[7] = tested on: E. faecalis MMX 847 Macrolide-Resistant; conditions: Enterococcus faecalis
[8] = tested on: S. pneumoniae MMX 3028 cErmB; conditions: Streptococcus pneumoniae, MMX3028CERMB
E. faecalis ATCC 29212 = conditions: Enterococcus faecalis
S. aureus BAA 977 iErmA = conditions: Staphylococcus aureus, BAA977
S. pneumoniae ATCC 49619 = conditions: Streptococcus pneumoniae, ATCC49619; S. pneumoniae ATCC 49619; read-out: MIC
[9] = tested on: S. aureus MP-513 clinical cErm; conditions: Staphylococcus aureus
E. coli MP-9 ΔTolC = conditions: Escherichia coli
K. pneumoniae ATCC 10031 = conditions: Klebsiella pneumoniae, ATCC10031
[10] = tested on: S. aureus MP-549 msr(a) USA 300; conditions: Staphylococcus aureus, USA300, S. aureus MP-549 msr(a) USA 300
[11] = tested on: E. coli MP-74 LptD mutant; conditions: Escherichia coli
[12] = C. difficile BAA 1805, read-out: MIC
[13] = ATCC29213, S. aureus ATCC 29213, read-out: MIC
[14] = S. aureus Micromyx USA 300, read-out: MIC
[15] = B. fragilis ATCC 25285, read-out: MIC

Measured: MIC

C[C@@H](O)[C@@H](NC(=O)[C@H]1NC[C@@H]2CC=CCO[C@H]21)[C@H]1OC(CN=[N+]=[N-])[C@H](O)[C@H](O)C1O (some centres unmarked) [FSA-211064]
16 µg/mL: [1] | S. pneumoniae ATCC 49619
64 µg/mL: C. difficile BAA 1805; [12]
> 64 µg/mL: E. coli ATCC 25922; ATCC25922 | [2] | S. aureus ATCC 29213; ATCC29213 | [3] | H. influenzae ATCC 49247 | [4] | S. aureus MMX 3035 cErmA | B. fragilis ATCC 25285 | P. aeruginosa ATCC 27853 | E. coli MMX 0121 ΔTolC | [5] | [6] | [7] | [8] | E. faecalis ATCC 29212; ATCC29212 | S. aureus BAA 977 iErmA
4 µg/mL: S. pyogenes ATCC 19615

CSC1O[C@H]([C@H](NC(=O)[C@H]2NC[C@@H]3CN(C(=N)N)CCO[C@H]32)[C@H](C)Cl)C(O)C(O)[C@H]1O (some centres unmarked) [FSA-504057]
> 64 µg/mL: E. coli ATCC 25922; ATCC25922 | S. aureus ATCC 29213; ATCC29213 | [9] | E. coli MP-9 ΔTolC | K. pneumoniae ATCC 10031 | P. aeruginosa ATCC 27853

C=CC1=CCO[C@@H]2[C@H](CN[C@@H]2C(=O)N[C@H]([C@H](C)Cl)[C@H]2OC(SC)[C@H](O)[C@H](O)C2O)C1 (some centres unmarked) [FSA-507041]
32 µg/mL: [8]; S. pneumoniae MMX 3028 cErmB, read-out: MIC
≤ 0.03 µg/mL: [1] | S. pneumoniae ATCC 49619
2 µg/mL: B. fragilis ATCC 25285; [15] | E. faecalis ATCC 29212; ATCC29212, read-out: MIC
16 µg/mL: H. influenzae ATCC 49247 | E. coli MMX 0121 ΔTolC
0.5 µg/mL: S. aureus ATCC 29213; [13] | C. difficile BAA 1805; [12] | S. aureus BAA 977 iErmA
0.06 µg/mL: S. pyogenes ATCC 19615
0.25 µg/mL: [3]; [14]
> 32 µg/mL: E. coli ATCC 25922; ATCC25922 | [2] | [4] | S. aureus MMX 3035 cErmA | P. aeruginosa ATCC 27853 | [5] | [6] | [7]

CSC1O[C@H]([C@H](NC(=O)[C@H]2NC[C@@H]3CC(c4ccccc4)=CCO[C@H]32)[C@H](C)Cl)C(O)[C@@H](O)[C@H]1O (some centres unmarked) [FSA-507056]
16 µg/mL: C. difficile BAA 1805; [12]
1 µg/mL: S. aureus ATCC 29213; [13] | S. aureus BAA 977 iErmA
0.5 µg/mL: [3]; [14]
0.12 µg/mL: [1]
2 µg/mL: E. faecalis ATCC 29212; ATCC29212, read-out: MIC
0.25 µg/mL: S. pyogenes ATCC 19615 | S. pneumoniae ATCC 49619
> 32 µg/mL: E. coli ATCC 25922; ATCC25922 | [2] | H. influenzae ATCC 49247 | [4] | S. aureus MMX 3035 cErmA | B. fragilis ATCC 25285 | P. aeruginosa ATCC 27853 | E. coli MMX 0121 ΔTolC | [5] | [6] | [7] | [8]

Cc1ccc(S(=O)(=O)OCC2O[C@H]([C@H](NC(=O)[C@H]3NC[C@@H]4CC=CCO[C@H]43)[C@@H](C)O)C(O)[C@@H](O)[C@H]2O)cc1 (some centres unmarked) [FSA-211030]
32 µg/mL: [1] | S. pneumoniae ATCC 49619
1 µg/mL: S. pyogenes ATCC 19615
> 64 µg/mL: E. coli ATCC 25922; ATCC25922 | [2] | S. aureus ATCC 29213; ATCC29213 | C. difficile BAA 1805 | [3] | H. influenzae ATCC 49247 | [4] | S. aureus MMX 3035 cErmA | B. fragilis ATCC 25285 | P. aeruginosa ATCC 27853 | E. coli MMX 0121 ΔTolC | [5] | [6] | [7] | [8] | E. faecalis ATCC 29212; ATCC29212 | S. aureus BAA 977 iErmA

CSC1O[C@H]([C@H](NC(=O)[C@H]2NC[C@@H]3C[C@H]4C[C@H]4CO[C@H]32)[C@H](C)Cl)C(O)C(O)[C@H]1O (stereo in doubt) [FSA-507007]
4 µg/mL: C. difficile BAA 1805; [12]
0.5 µg/mL: S. aureus BAA 977 iErmA
0.25 µg/mL: S. aureus ATCC 29213; [13] | [10]
≤ 0.06 µg/mL: S. pyogenes ATCC 19615
16 µg/mL: [11] | E. coli MP-9 ΔTolC | E. faecalis ATCC 29212; ATCC29212
64 µg/mL: [5] | [8]
32 µg/mL: [4]; S. pyogenes MMX 946 Macrolide-Resistant (MacRes), read-out: MIC | B. fragilis ATCC 25285; [15]
8 µg/mL: E. coli MMX 0121 ΔTolC
0.12 µg/mL: [1] | [3]; [14] | S. pneumoniae ATCC 49619
2 µg/mL: H. influenzae ATCC 49247; H. influenzae ATCC 49247, read-out: MIC
> 64 µg/mL: E. coli ATCC 25922; ATCC25922, E. coli ATCC 25922, read-out: MIC | [2]; E. coli MMX TolC parent strain, read-out: MIC | S. aureus MMX 3035 cErmA; S. aureus MMX 3035 cErmA, read-out: MIC | K. pneumoniae ATCC 10031; K. pneumoniae ATCC 10031, read-out: MIC | P. aeruginosa ATCC 27853; P. aeruginosa ATCC 27853, read-out: MIC | [6]; P. aeruginosa MMX Mex parent strain, read-out: MIC | [7]; E. faecalis MMX 847 Macrolide-Resistant (MacRes), read-out: MIC

Reference: patent publication US11767341B2, “Lincosamide antibiotics and uses thereof” (President and Fellows of Harvard College, priority 2017, dated 2023)
